Laboratory results: patent US6693207B2, “B-ring estratriene diols” (Wyeth, priority 1997, dated 2004)

System: uterine weight, immature rats
Experiment: In vivo uterotropic activity
Design: species or system rat
Details: 0.2 and 2 mg/kg, three days, S.C.
Procedure: Immature rats were treated with doses of 0.2 and 2 mg/kg 5,7,9-estratriene-3β,17β-diol for three days (S.C.) as well as additional groups (n=6) of rats treated with 0.5 μg ethinyl estradiol and vehicle as positive and negative controls, respectively.

C[C@]12CCc3c(ccc4c3CC[C@H](O)C4)[C@@H]1CC[C@@H]2O [5,7,9-estratriene-3β,17β-diol]
uterine weight: uterine weight gains at both concentrations
